Assay results taken from ChEMBL document CHEMBL1134029, “Heterocyclic derivatives of 2-(3,5-dimethylphenyl)tryptamine as GnRH receptor antagonists” (Bioorg Med Chem Lett, 2001).

molecular target: T1, Gonadotropin-releasing hormone receptor (Rattus norvegicus, UniProt P30969); experiment: Inhibition of rat gonadotropin-releasing hormone receptor
T1 sequence (P30969 whole entry): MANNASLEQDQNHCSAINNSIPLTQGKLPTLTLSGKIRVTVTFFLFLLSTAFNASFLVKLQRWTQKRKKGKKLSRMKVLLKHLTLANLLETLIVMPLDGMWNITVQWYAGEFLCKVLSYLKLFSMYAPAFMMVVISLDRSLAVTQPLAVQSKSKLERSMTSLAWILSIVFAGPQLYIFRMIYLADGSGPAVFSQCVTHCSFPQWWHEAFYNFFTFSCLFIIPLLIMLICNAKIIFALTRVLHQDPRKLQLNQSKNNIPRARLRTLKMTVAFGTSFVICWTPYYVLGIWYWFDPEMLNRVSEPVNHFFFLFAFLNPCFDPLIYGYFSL

SMILES	IC50 [µM]
Cc1cc(C)cc(-c2[nH]c3ccccc3c2CCNCCCCc2cncnc2)c1	0.27
Cc1cc(C)cc(-c2[nH]c3ccccc3c2CCNCCCc2ccncc2)c1	0.21
Cc1cc(C)cc(-c2[nH]c3ccccc3c2CCNCCCCc2ccc(O)cc2)c1	0.027
Cc1cc(C)cc(-c2[nH]c3ccccc3c2CCNCc2ccccn2)c1	> 10
Cc1cc(C)cc(-c2[nH]c3ccccc3c2CCNCCCCCc2cccnc2)c1	0.05
Cc1cc(C)cc(-c2[nH]c3ccccc3c2CCNCCCc2cccnc2)c1	0.2
Cc1cc(C)cc(-c2[nH]c3ccccc3c2CCNCCc2ccccn2)c1	2.17
Cc1cc(C)cc(-c2[nH]c3ccccc3c2CCNCc2cccnc2)c1	4.5
Cc1cc(C)cc(-c2[nH]c3ccccc3c2CCNCCCCc2ccc(N)nc2)c1	0.041
Cc1cc(C)cc(-c2[nH]c3ccccc3c2CCNCCCCc2ccncc2)c1	0.016
Cc1cc(C)cc(-c2[nH]c3ccccc3c2CCNCCCCc2ccc3c(n2)NCCC3)c1	1.26

Results, then the compound that gave them:

IC50 [µM]	SMILES
0.057	Cc1cc(C)cc(-c2[nH]c3ccccc3c2CCNCCCCc2ccc(=O)[nH]c2)c1
0.036	Cc1cc(C)cc(-c2[nH]c3ccccc3c2CCNCCCCc2cnc3ccccc3c2)c1
0.04	Cc1cc(C)cc(-c2[nH]c3ccccc3c2CCNCCCCc2cccnc2)c1
0.09	COc1ccc(CCCCNCCc2c(-c3cc(C)cc(C)c3)[nH]c3ccccc23)cn1
0.16	Cc1cc(C)cc(-c2[nH]c3ccccc3c2CCNCCc2ccncc2)c1
0.2	Cc1cc(C)cc(-c2[nH]c3ccccc3c2CCNCCc2cccnc2)c1
0.45	Cc1cc(C)cc(-c2[nH]c3ccccc3c2CCNCCCCc2ccccn2)c1
0.007	Cc1cc(C)cc(-c2[nH]c3ccccc3c2CCNCCCCc2ccc(NS(C)(=O)=O)cc2)c1
9	Cc1cc(C)cc(-c2[nH]c3ccccc3c2CCNCc2ccncc2)c1
0.45	Cc1cc(C)cc(-c2[nH]c3ccccc3c2CCNCCCCc2cnc[nH]2)c1
0.12	CC(=O)Nc1ccc(CCCCNCCc2c(-c3cc(C)cc(C)c3)[nH]c3ccccc23)cn1
0.15	Cc1cc(C)cc(-c2[nH]c3ccccc3c2CCNCCCCCc2ccncc2)c1
0.045	Cc1cc(C)cc(-c2[nH]c3ccccc3c2CCNCCCCc2ccc(NS(C)(=O)=O)nc2)c1

molecular target: T2, Gonadotropin-releasing hormone receptor (Homo sapiens, UniProt P30968); experiment: Inhibitory activity evaluated against human Gonadotropin-releasing hormone receptor
T2 sequence (P30968 whole entry): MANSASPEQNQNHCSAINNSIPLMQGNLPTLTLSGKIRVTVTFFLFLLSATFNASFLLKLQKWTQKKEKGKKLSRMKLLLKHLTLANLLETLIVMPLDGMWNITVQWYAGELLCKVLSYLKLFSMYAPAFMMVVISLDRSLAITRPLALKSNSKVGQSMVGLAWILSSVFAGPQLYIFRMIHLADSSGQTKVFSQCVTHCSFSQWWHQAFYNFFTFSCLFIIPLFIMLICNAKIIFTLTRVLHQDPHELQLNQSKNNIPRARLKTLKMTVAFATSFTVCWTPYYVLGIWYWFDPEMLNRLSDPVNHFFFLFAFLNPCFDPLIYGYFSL

SMILES	IC50 [µM]
Cc1cc(C)cc(-c2[nH]c3ccccc3c2CCNCCCCc2ccc(O)cc2)c1	0.357
Cc1cc(C)cc(-c2[nH]c3ccccc3c2CCNCCCCc2ccc(NS(C)(=O)=O)cc2)c1	0.17
